Experimental data from article PMC3486884 (PLoS Pathogens, 2012).
Like-named read-outs stand apart in the source and are kept apart here.

How the values were obtained:
CVB4 [1] = assay: microbe, parasite or virus in culture; settings: Enterovirus B, CVB4, HeLa, read-out: IC50 (CVB4)
CVA21 [2] = assay: microbe, parasite or virus in culture; settings: Coxsackievirus, CVA21, HeLa, read-out: IC50 (CVA21)
[3] = system: influenza virus (strain A/Puerto Rico/8/34/H1N1 depicted PR8); assay: microbe, parasite or virus in culture; settings: unidentified influenza virus, A549, read-out: IC50 (PR8)
HRV1A [4] = assay: microbe, parasite or virus in culture; settings: Human rhinovirus sp.; for IC50: HeLa, read-out: IC50 (HRV1A); for activity at 0.03 µM / activity at 0.1 µM / activity at 0.31 µM / activity at 0.93 µM / activity at 2.78 µM / activity at 8.33 µM / activity at 25 µM: M-HeLa, 7 h; for activity at 0.03 µM: read-out: HRV1A infection (dsRNA), 0.03 µM; for activity at 0.1 µM: read-out: HRV1A infection (dsRNA), 0.10 µM; for activity at 0.31 µM: read-out: HRV1A infection (dsRNA), 0.31 µM; for activity at 0.93 µM: read-out: HRV1A infection (dsRNA), 0.93 µM; for activity at 2.78 µM: read-out: HRV1A infection (dsRNA), 2.78 µM; for activity at 8.33 µM: read-out: HRV1A infection (dsRNA), 8.33 µM; for activity at 25 µM: read-out: HRV1A infection (dsRNA), 25.00 µM
CVB4 [5] = settings: n=2
HRV16 [6] = assay: microbe, parasite or virus in culture; settings: Human rhinovirus sp., HRV16, HeLa, read-out: IC50 (HRV16)
HRV16 [7] = settings: n=2
CVA21 [8] = settings: n=2
HRV14 [9] = assay: microbe, parasite or virus in culture; settings: Human rhinovirus sp., HRV14, HeLa, read-out: IC50 (HRV14)
HRV2 [10] = settings: n=2
HRV2 [11] = assay: microbe, parasite or virus in culture; settings: Human rhinovirus sp., HRV2, HeLa, read-out: IC50 (HRV2)
HRV1A [12] = settings: for relative infection: n=2
HRV14 [13] = settings: n=2
CVB3 = settings: n=2

With `O=C(Nc1ccc([N+](=O)[O-])cc1Cl)c1cc(Cl)cc(Cl)c1O` [TVB-1326] the IC50 (CVB4 [1]) was 15 µM, the IC50 (CVA21 [2]) was about 25.8 µM and the IC50 [3] was 10.2 µM. For the same compound, the IC50 (HRV1A [4]) was 3.36 µM, the activity at 0.03 µM (HRV1A [4]) was 93% and the activity at 0.1 µM (HRV1A [4]) was 85%. The activity at 0.31 µM (HRV1A [4]) was 88%, the activity at 0.93 µM (HRV1A [4]) was 87% and the activity at 2.78 µM (HRV1A [4]) was 66%. It also gave an activity at 8.33 µM (HRV1A [4]) of 17%, an activity at 25 µM (HRV1A [4]) of 4% and a relative infection (CVB4 [5]; 0.1 µM) of 1.13. For the same compound, the relative infection (CVB4 [5]; 0.3 µM) was 1.22, the relative infection (CVB4 [5]; 0.9 µM) was 1.20 and the relative infection (CVB4 [5]; 2.8 µM) was 1.06. The relative infection (CVB4 [5]; 8.3 µM) was 0.71, the relative infection (CVB4 [5]; 25.0 µM) was 0.29 and the IC50 (HRV16 [6]) was 11.1 µM. The relative infection (HRV16 [7]; 0.1 µM) was 0.99, the relative infection (HRV16 [7]; 0.3 µM) was 1.00 and the relative infection (HRV16 [7]; 0.9 µM) was 0.96. For the same compound, the relative infection (HRV16 [7]; 2.8 µM) was 0.96, the relative infection (HRV16 [7]; 8.3 µM) was 0.68 and the relative infection (HRV16 [7]; 25.0 µM) was 0.10. The relative infection (CVA21 [8]; 0.1 µM) was 0.87, the relative infection (CVA21 [8]; 0.3 µM) was 0.98 and the relative infection (CVA21 [8]; 0.9 µM) was 1.00. The relative infection (CVA21 [8]; 2.8 µM) was 0.99, the relative infection (CVA21 [8]; 8.3 µM) was 1.10 and the relative infection (CVA21 [8]; 25.0 µM) was 0.59. For the same compound, the IC50 (HRV14 [9]) was 6.87 µM, the relative infection (HRV2 [10]; 0.1 µM) was 1.05 and the relative infection (HRV2 [10]; 0.3 µM) was 0.96. The relative infection (HRV2 [10]; 0.9 µM) was 0.86, the relative infection (HRV2 [10]; 2.8 µM) was 0.72 and the relative infection (HRV2 [10]; 8.3 µM) was 0.15. It also gave a relative infection (HRV2 [10]; 25.0 µM) of 0.01, an IC50 (HRV2 [11]) of 3.98 µM and a relative infection (HRV1A [12]; 0.1 µM) of 0.93. The relative infection (HRV1A [12]; 0.3 µM) was 0.91, the relative infection (HRV1A [12]; 0.9 µM) was 0.84 and the relative infection (HRV1A [12]; 2.8 µM) was 0.62. It also gave a relative infection (HRV1A [12]; 8.3 µM) of 0.17, a relative infection (HRV1A [12]; 25.0 µM) of 0.02 and a relative infection (HRV14 [13]; 0.1 µM) of 0.87. The relative infection (HRV14 [13]; 0.3 µM) was 0.90, the relative infection (HRV14 [13]; 0.9 µM) was 0.88 and the relative infection (HRV14 [13]; 2.8 µM) was 0.81. The relative infection (HRV14 [13]; 8.3 µM) was 0.46, the relative infection (HRV14 [13]; 25.0 µM) was 0.07 and the relative infection (CVB3; 0.1 µM) was 1.05. The relative infection (CVB3; 0.3 µM) was 1.06, the relative infection (CVB3; 0.9 µM) was 1.11 and the relative infection (CVB3; 2.8 µM) was 1.06. For the same compound, the relative infection (CVB3; 8.3 µM) was 1.00 and the relative infection (CVB3; 25.0 µM) was 1.27.

`O=C(Nc1ccc([N+](=O)[O-])cc1Cl)c1cc(Cl)ccc1OCCOc1ccccc1` [TVB-1329] was tested, and the IC50 (CVA21 [2]) was about 26.6 µM, the IC50 [3] was 10.3 µM and the IC50 (HRV1A [4]) was 9.34 µM. It also gave an activity at 0.03 µM (HRV1A [4]) of 112%, an activity at 0.1 µM (HRV1A [4]) of 112% and an activity at 0.31 µM (HRV1A [4]) of 119%. The activity at 0.93 µM (HRV1A [4]) was 123%, the activity at 2.78 µM (HRV1A [4]) was 111% and the activity at 8.33 µM (HRV1A [4]) was 47%. For the same compound, the activity at 25 µM (HRV1A [4]) was 6%, the relative infection (CVB4 [5]; 0.1 µM) was 1.12 and the relative infection (CVB4 [5]; 0.3 µM) was 1.28. The relative infection (CVB4 [5]; 0.9 µM) was 1.51, the relative infection (CVB4 [5]; 2.8 µM) was 1.62 and the relative infection (CVB4 [5]; 8.3 µM) was 1.33. It also gave a relative infection (CVB4 [5]; 25.0 µM) of 0.46, a relative infection (HRV16 [7]; 0.1 µM) of 0.84 and a relative infection (HRV16 [7]; 0.3 µM) of 0.98. For the same compound, the relative infection (HRV16 [7]; 0.9 µM) was 1.04, the relative infection (HRV16 [7]; 2.8 µM) was 1.26 and the relative infection (HRV16 [7]; 8.3 µM) was 0.99. It also gave a relative infection (HRV16 [7]; 25.0 µM) of 0.14, a relative infection (CVA21 [8]; 0.1 µM) of 0.86 and a relative infection (CVA21 [8]; 0.3 µM) of 0.97. It also gave a relative infection (CVA21 [8]; 0.9 µM) of 1.08, a relative infection (CVA21 [8]; 2.8 µM) of 1.13 and a relative infection (CVA21 [8]; 8.3 µM) of 1.29. It also gave a relative infection (CVA21 [8]; 25.0 µM) of 0.68, an IC50 (HRV14 [9]) of 9.3 µM and a relative infection (HRV2 [10]; 0.1 µM) of 1.03. The relative infection (HRV2 [10]; 0.3 µM) was 1.10, the relative infection (HRV2 [10]; 0.9 µM) was 0.98 and the relative infection (HRV2 [10]; 2.8 µM) was 0.68. The relative infection (HRV2 [10]; 8.3 µM) was 0.36, the relative infection (HRV2 [10]; 25.0 µM) was 0.02 and the IC50 (HRV2 [11]) was 5.07 µM. The “antiviral activity against HRV1A (structure-activity study, in words)” value (HRV1A [12]) was “did not diminish the antiviral efficacy compared to niclosamide”, the relative infection (HRV1A [12]; 0.1 µM) was 1.00 and the relative infection (HRV1A [12]; 0.3 µM) was 1.04. It also gave a relative infection (HRV1A [12]; 0.9 µM) of 1.10, a relative infection (HRV1A [12]; 2.8 µM) of 1.02 and a relative infection (HRV1A [12]; 8.3 µM) of 0.59. For the same compound, the relative infection (HRV1A [12]; 25.0 µM) was 0.05, the relative infection (HRV14 [13]; 0.1 µM) was 0.86 and the relative infection (HRV14 [13]; 0.3 µM) was 0.87. It also gave a relative infection (HRV14 [13]; 0.9 µM) of 0.97, a relative infection (HRV14 [13]; 2.8 µM) of 0.86 and a relative infection (HRV14 [13]; 8.3 µM) of 0.58. For the same compound, the relative infection (HRV14 [13]; 25.0 µM) was 0.10, the relative infection (CVB3; 0.1 µM) was 0.97 and the relative infection (CVB3; 0.3 µM) was 1.06. It also gave a relative infection (CVB3; 0.9 µM) of 1.19, a relative infection (CVB3; 2.8 µM) of 1.25 and a relative infection (CVB3; 8.3 µM) of 1.07. For the same compound, the relative infection (CVB3; 25.0 µM) was 1.01.

`CS(=O)(=O)c1ccc(NC(=O)c2cc(Cl)ccc2O)c(Cl)c1` [TVB-1338] was tested, and the IC50 [3] was 42.9 µM, the activity at 0.03 µM (HRV1A [4]) was 123% and the activity at 0.1 µM (HRV1A [4]) was 106%. For the same compound, the activity at 0.31 µM (HRV1A [4]) was 109%, the activity at 0.93 µM (HRV1A [4]) was 105% and the activity at 2.78 µM (HRV1A [4]) was 106%. It also gave an activity at 8.33 µM (HRV1A [4]) of 111%, an activity at 25 µM (HRV1A [4]) of 112% and a relative infection (CVB4 [5]; 0.1 µM) of 1.00. The relative infection (CVB4 [5]; 0.3 µM) was 1.02, the relative infection (CVB4 [5]; 0.9 µM) was 1.06 and the relative infection (CVB4 [5]; 2.8 µM) was 1.15. For the same compound, the relative infection (CVB4 [5]; 8.3 µM) was 1.02, the relative infection (CVB4 [5]; 25.0 µM) was 0.51 and the IC50 (HRV16 [6]) was about 26.9 µM. The relative infection (HRV16 [7]; 0.1 µM) was 1.09, the relative infection (HRV16 [7]; 0.3 µM) was 1.11 and the relative infection (HRV16 [7]; 0.9 µM) was 1.15. The relative infection (HRV16 [7]; 2.8 µM) was 1.13, the relative infection (HRV16 [7]; 8.3 µM) was 1.02 and the relative infection (HRV16 [7]; 25.0 µM) was 0.67. For the same compound, the relative infection (CVA21 [8]; 0.1 µM) was 1.02, the relative infection (CVA21 [8]; 0.3 µM) was 1.05 and the relative infection (CVA21 [8]; 0.9 µM) was 1.03. For the same compound, the relative infection (CVA21 [8]; 2.8 µM) was 1.05, the relative infection (CVA21 [8]; 8.3 µM) was 1.06 and the relative infection (CVA21 [8]; 25.0 µM) was 0.81. The relative infection (HRV2 [10]; 0.1 µM) was 1.05, the relative infection (HRV2 [10]; 0.3 µM) was 1.11 and the relative infection (HRV2 [10]; 0.9 µM) was 1.12. For the same compound, the relative infection (HRV2 [10]; 2.8 µM) was 1.13, the relative infection (HRV2 [10]; 8.3 µM) was 1.12 and the relative infection (HRV2 [10]; 25.0 µM) was 0.76. The “antiviral activity against HRV1A (structure-activity study, in words)” value (HRV1A [12]) was “eliminated antiviral activity”, the relative infection (HRV1A [12]; 0.1 µM) was 1.02 and the relative infection (HRV1A [12]; 0.3 µM) was 0.96. The relative infection (HRV1A [12]; 0.9 µM) was 1.07, the relative infection (HRV1A [12]; 2.8 µM) was 1.12 and the relative infection (HRV1A [12]; 8.3 µM) was 1.11. It also gave a relative infection (HRV1A [12]; 25.0 µM) of 0.95, a relative infection (HRV14 [13]; 0.1 µM) of 1.07 and a relative infection (HRV14 [13]; 0.3 µM) of 1.12. The relative infection (HRV14 [13]; 0.9 µM) was 1.20, the relative infection (HRV14 [13]; 2.8 µM) was 1.17 and the relative infection (HRV14 [13]; 8.3 µM) was 1.13. For the same compound, the relative infection (HRV14 [13]; 25.0 µM) was 0.62, the relative infection (CVB3; 0.1 µM) was 0.97 and the relative infection (CVB3; 0.3 µM) was 1.10. The relative infection (CVB3; 0.9 µM) was 1.09, the relative infection (CVB3; 2.8 µM) was 1.05 and the relative infection (CVB3; 8.3 µM) was 0.94. The relative infection (CVB3; 25.0 µM) was 0.94.
